Patent publication US20260083865A1, “PROSTATE SPECIFIC MEMBRANE ANTIGEN (PSMA) LIGANDS AND USE THEREOF” (priority 2022, published 2026)
Like-named read-outs stand apart in the source and are kept apart here. Numbered stars: 1 amine (or outer) side, 2 acyl side, 3 side chain; on linkers, the order of the positions; unused ones are H or OH. Bridge positions count the residues as written; N and C are the ends. Square brackets hold non-standard residues; d marks the D form. Peptide text beside a SMILES is read from it. * marks the point of attachment. X12 = O=C(O)CN1CCOCCN(CC(=O)O)CCN(CC(=O)*)CCOCCN(CC(=O)O)CC1; DOTA = O=C(O)CN1CCN(CC(=O)O)CCN(CC(=O)*)CCN(CC(=O)O)CC1; Biotin = O=C1N[C@H]2[C@H](CS[C@H]2CCCCC(=O)*)N1; Phe(4-Cl) = N[C@@H](Cc1ccc(Cl)cc1)C(=O)O; Arg(Me) = CNC(=N)NCCC[C@H](N)C(=O)O; X1 = O=C(CC1CCN([*:1])CC1)[*:2]; Cit = NC(=O)NCCC[C@H](N)C(=O)O; Lys(Me) = CNCCCC[C@H](N)C(=O)O; Tle = CC(C)(C)[C@H](N)C(=O)O; Nle = CCCC[C@H](N)C(=O)O; Aib = CC(C)(N)C(=O)O; Guanidino = N=C(N)N*

Assays:
[1] = target: T1, PSMA-expressing C4-2 cells (Homo sapiens, UniProt Q04609); assay: FACS binding assay (competition with 50 nM PSM-0183)
T1 construct: PSMA-expressing C4-2 cells (ATCC, Cat. No. CRL-3314) were cultured in RPMI-1640; host or cells: C4-2 cells
Summary of the method: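 C4-2 cells were incubated 1 h at 4 °C with 50 nM AF488-labelled peptide PSM-0183 plus increasing test compound concentrations, then washed twice in ice-cold buffer. Median fluorescence in the AF488 channel was read by flow cytometry. IC50/pIC50 was derived by 4PL fitting of MFI versus concentration.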

[2] = target: T2, Fc-fusion protein of human PSMA (hPSMA-Fc) (Homo sapiens, UniProt Q04609); assay: Surface plasmon resonance assay (Biacore T200, single cycle kinetic); format: binding
T2 construct: purchased Acro Biosystems PSA-H5264
Summary of the method: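 hPSMA-Fc was captured (~1000 RU) on an Fc-binding-peptide CM5 chip, and compounds were run in single cycle kinetic mode at 25° C in HBST with 0.1% DMSO. Double-blank-corrected sensorgrams were fitted to a 1:1 Langmuir model to give KD, reported as pKD.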

[3] = pIC50 category of FACS binding, C4-2 cells, read-out: pIC50 [C4-2] CAT (converted)
[4] = pKD category for PSMA SPR activity assay, hPSMA-Fc, 25° C., read-out: pKD CAT (converted)

T1 sequence (Q04609 whole entry): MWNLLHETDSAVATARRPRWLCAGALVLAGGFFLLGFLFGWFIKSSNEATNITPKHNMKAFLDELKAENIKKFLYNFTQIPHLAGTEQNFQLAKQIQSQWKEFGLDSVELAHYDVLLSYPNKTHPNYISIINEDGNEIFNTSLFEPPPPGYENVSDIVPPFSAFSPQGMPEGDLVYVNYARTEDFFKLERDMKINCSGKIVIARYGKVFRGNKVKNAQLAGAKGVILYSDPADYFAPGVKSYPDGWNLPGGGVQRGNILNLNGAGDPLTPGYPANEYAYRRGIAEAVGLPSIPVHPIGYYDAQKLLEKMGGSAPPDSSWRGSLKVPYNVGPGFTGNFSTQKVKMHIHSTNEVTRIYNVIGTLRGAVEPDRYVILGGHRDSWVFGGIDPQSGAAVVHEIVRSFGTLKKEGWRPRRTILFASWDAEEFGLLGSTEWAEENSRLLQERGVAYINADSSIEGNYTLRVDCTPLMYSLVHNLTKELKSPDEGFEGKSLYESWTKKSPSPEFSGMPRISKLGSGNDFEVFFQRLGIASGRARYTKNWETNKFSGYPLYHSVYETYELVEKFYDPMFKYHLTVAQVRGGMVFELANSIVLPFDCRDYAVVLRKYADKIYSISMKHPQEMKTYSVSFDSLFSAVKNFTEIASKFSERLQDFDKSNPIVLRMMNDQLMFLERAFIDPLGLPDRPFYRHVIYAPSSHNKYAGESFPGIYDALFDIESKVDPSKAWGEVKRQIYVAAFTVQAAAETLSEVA
T2 sequence (Q04609 44-750 limits assumed): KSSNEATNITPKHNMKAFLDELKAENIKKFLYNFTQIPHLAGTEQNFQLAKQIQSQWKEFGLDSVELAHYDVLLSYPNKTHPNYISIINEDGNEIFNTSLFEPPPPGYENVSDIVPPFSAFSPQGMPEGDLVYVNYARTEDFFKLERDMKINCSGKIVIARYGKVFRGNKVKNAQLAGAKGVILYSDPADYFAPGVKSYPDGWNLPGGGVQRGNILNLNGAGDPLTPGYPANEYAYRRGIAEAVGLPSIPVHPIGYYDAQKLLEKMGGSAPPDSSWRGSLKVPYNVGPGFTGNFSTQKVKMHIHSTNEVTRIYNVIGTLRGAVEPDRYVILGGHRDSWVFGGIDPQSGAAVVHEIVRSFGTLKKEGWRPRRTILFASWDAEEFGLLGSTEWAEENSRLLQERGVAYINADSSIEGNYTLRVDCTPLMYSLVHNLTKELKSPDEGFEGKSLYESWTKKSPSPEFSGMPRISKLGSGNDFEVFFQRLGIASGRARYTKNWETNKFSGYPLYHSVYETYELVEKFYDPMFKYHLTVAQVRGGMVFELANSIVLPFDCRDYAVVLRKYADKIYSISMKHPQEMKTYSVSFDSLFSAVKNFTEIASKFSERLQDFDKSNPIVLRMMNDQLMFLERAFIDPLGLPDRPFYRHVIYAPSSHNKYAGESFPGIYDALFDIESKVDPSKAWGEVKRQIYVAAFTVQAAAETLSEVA

| Structure (SMILES) | IC50 [1, 3] [nM] | Kd [2, 4] [nM] | IC50 [1] [nM] | Kd [2] [nM] |
| --- | --- | --- | --- | --- |
| C[C@@H](O)[C@H](NC(=O)[C@@H](NC(=O)[C@@H]1CSSC[C@H](NC(=O)[C@H](Cc2ccc(Cl)cc2)NC(=O)C(C)(C)NC(=O)CC2CCN(C(=O)CN3CCN(CC(=O)O)CCN(CC(=O)O)CCN(CC(=O)O)CC3)CC2)C(=O)N[C@@H](CCCCN)C(=O)N[C@@H](CCC(=O)NC(=N)N)C(=O)NC(C)(C)C(=O)N[C@@H](CC(N)=O)C(=O)N1)C(C)(C)C)C(N)=O [PSM-0489, DOTA-Cmp-Aib-Pcf-[Cys-Lys-Gin (Gu)-Aib-Asn-Cys]-Tle-Thr-NH2] ({DOTA}-[X1][Aib][Phe(4-Cl)]CKE(Guanidino)[Aib]NC[Tle]T-NH2; disulfide 4-9) | < 200 | < 12.6 | – | – |
| C[C@@H](O)[C@H](NC(=O)[C@@H](NC(=O)[C@@H]1CSSC[C@H](NC(=O)[C@H](Cc2ccc(Cl)cc2)NC(=O)C(C)(C)NC(=O)[C@@H](NC(=O)CC2CCN(C(=O)CN3CCN(CC(=O)O)CCN(CC(=O)O)CCN(CC(=O)O)CC3)CC2)[C@@H](C)O)C(=O)N[C@@H](CCCCNC(=O)CCCC[C@@H]2SC[C@@H]3NC(=O)N[C@@H]32)C(=O)N[C@@H](CCCNC(=N)N)C(=O)NC(C)(C)C(=O)N[C@@H](CC(N)=O)C(=O)N1)C(C)(C)C)C(N)=O [PSM-0490, DOTA-Cmp-Thr-Aib-Pcf-[Cys-Lys (Bio)-Arg-Aib-Asn-Cys]-Tle-Thr-NH2] ({DOTA}-[X1]T[Aib][Phe(4-Cl)]CK(Biotin)R[Aib]NC[Tle]T-NH2; disulfide 5-10) | 200 to 1260 | < 12.6 | – | – |
| CCCC[C@H](NC(=O)[C@@H]1CSSC[C@H](NC(=O)[C@H](Cc2ccccc2)NC(=O)[C@H](C)NC(=O)[C@H](C)NC(C)=O)C(=O)N[C@@H](CCCCN)C(=O)N[C@@H](CCCNC(=N)N)C(=O)N[C@@H](C)C(=O)N[C@@H](CC(N)=O)C(=O)N1)C(=O)N[C@H](C(=O)N[C@@H](CC(=O)O)C(N)=O)[C@@H](C)O [PSM-0491, Ac-Ala-Ala-Phe-[Cys-Lys-Arg-Ala-Asn-Cys]-Nle-Thr-Asp-NH2] (Ac-AAFCKRANC[Nle]TD-NH2; disulfide 4-9) | 200 to 1260 | 126 to 501 | – | – |
| CC(=O)N[C@H](C(=O)NC(C)(C)C(=O)N[C@@H](Cc1ccc(Cl)cc1)C(=O)N[C@H]1CSSC[C@@H](C(=O)N[C@H](C(=O)N[C@H](C(=O)O)[C@@H](C)O)C(C)(C)C)NC(=O)[C@H](CC(N)=O)NC(=O)C(C)(C)NC(=O)[C@H](CCCNC(=N)N)NC(=O)[C@H](CCCCN)NC1=O)[C@@H](C)O [PSM-0493, Ac-Thr-Aib-Pcf-[Cys-Lys-Arg-Aib-Asn-Cys]-Tle-Thr-OH] (Ac-T[Aib][Phe(4-Cl)]CKR[Aib]NC[Tle]T-OH; disulfide 4-9) | < 200 | < 12.6 | – | – |
| CC(=O)NC(C)(C)C(=O)N[C@@H](Cc1ccc(Cl)cc1)C(=O)N[C@H]1CSSC[C@@H](C(=O)N[C@H](C(=O)N[C@H](C(=O)N2CCC(CC(=O)N[C@H](CCCCNC(=O)CN3CCN(CC(=O)O)CCN(CC(=O)O)CCN(CC(=O)O)CC3)C(N)=O)CC2)[C@@H](C)O)C(C)(C)C)NC(=O)[C@H](CC(N)=O)NC(=O)C(C)(C)NC(=O)[C@H](CCC(=O)NC(=N)N)NC(=O)[C@H](CCCCN)NC1=O [PSM-0494, Ac-Aib-Pcf-[Cys-Lys-Gln(Gu)-Aib-Asn-Cys]-Tle-Thr-Cmp-lys(DOTA)-NH2] (Ac-[Aib][Phe(4-Cl)]CKE(Guanidino)[Aib]NC[Tle]T[X1][dK](DOTA)-NH2; disulfide 3-8) | – | – | < 200 | 12.6 to 126 |
| CNCCCC[C@@H]1NC(=O)[C@@H](NC(=O)[C@H](Cc2ccc(Cl)cc2)NC(=O)C(C)(C)NC(=O)[C@@H](NC(=O)CC2CCN(C(=O)CN3CCOCCN(CC(=O)O)CCN(CC(=O)O)CCOCCN(CC(=O)O)CC3)CC2)[C@@H](C)O)CSSC[C@@H](C(=O)N[C@H](C(=O)N[C@H](C(N)=O)[C@@H](C)O)C(C)(C)C)NC(=O)[C@H](CC(N)=O)NC(=O)C(C)(C)NC(=O)[C@H](CCCNC(=N)NC)NC1=O [PSM-0495, Crown-Cmp-Thr-Aib-Pcf-[Cys-Lys(Me)-Arg(Me)-Aib-Asn-Cys]-Tle-Thr-NH2] (X12-[X1]T[Aib][Phe(4-Cl)]C[Lys(Me)][Arg(Me)][Aib]NC[Tle]T-NH2; disulfide 5-10) | < 200 | < 12.6 | – | – |
| CC(=O)N[C@H](C(=O)NC(C)(C)C(=O)N[C@@H](Cc1ccc(Cl)cc1)C(=O)N[C@H]1CSSC[C@@H](C(=O)N[C@H](C(=O)N[C@H](C(N)=O)[C@@H](C)O)C(C)(C)C)NC(=O)[C@H](CCC(=O)O)NC(=O)C(C)(C)NC(=O)[C@H](CCCNC(N)=O)NC(=O)[C@H](CCCCN)NC1=O)[C@@H](C)O [PSM-0496, Ac-Thr-Aib-Pcf-[Cys-Lys-Cit-Aib-Glu-Cys]-Tle-Thr-NH2] (Ac-T[Aib][Phe(4-Cl)]CK[Cit][Aib]EC[Tle]T-NH2; disulfide 4-9) | < 200 | 12.6 to 126 | – | – |
